Experiments:
KMS11 cells = assay: Cell proliferation assay (CellTiter-Glo); type: cell-based; settings: KMS-11, 72 h; KMS11 human myeloma cell line, 3 days
Description: KMS11 (human myeloma cell line), were cultured in IMDM supplemented with 10% FBS, sodium pyruvate and antibiotics. Cells were plated in the same medium at a density of 2000 cells per well into 96 well tissue culture plates, with outside wells vacant, on the day of assay. MM1.s (human myeloma cell line), were cultured in RPMI1640 supplemented with 10% FBS, sodium pyruvate and antibiotics. Cells were plated in the same medium at a density of 5000 cells per well into 96 well tissue culture plates, with outside wells vacant, on the day of assay.
Test compounds supplied in DMSO were diluted into DMSO at 500 times the desired final concentrations before dilution into culture media to 2 times final concentrations. Equal volumes of 2× compounds were added to the cells in 96 well plates and incubated at 37° C. for 3 days.
After 3 days plates were equilibrated to room temperature and equal volume of CellTiter-Glow Reagent (Promega) was added to the culture wells. The plates were agitated briefly and luminescent signal was measured with luminometer. The percent inhibition of the signal seen in cells treated with DMSO alone vs. cells treated with control compound was calculated and used to determine EC50 values (i.e., the concentration of a test compound that is required to obtain 50% of the maximum effect in the cells) for tested compounds, as shown in Example 41.

PIM1 = PIM1 (Homo sapiens, UniProt P11309); assay: Pim1 ATP depletion assay; type: biochemical; settings: 20 μM ATP, 2.5 nM PIM1
Sequence of PIM1 (P11309 whole entry): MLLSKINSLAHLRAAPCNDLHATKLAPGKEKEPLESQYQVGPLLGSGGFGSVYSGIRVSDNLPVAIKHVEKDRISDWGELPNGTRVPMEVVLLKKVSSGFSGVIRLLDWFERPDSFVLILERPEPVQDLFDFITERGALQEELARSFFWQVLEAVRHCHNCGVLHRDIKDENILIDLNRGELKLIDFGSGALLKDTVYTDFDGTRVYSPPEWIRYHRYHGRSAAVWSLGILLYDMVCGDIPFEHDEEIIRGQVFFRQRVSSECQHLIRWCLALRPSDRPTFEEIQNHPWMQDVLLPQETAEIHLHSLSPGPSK
Description: The activity of PIM1 is measured using a luciferase-luciferin based ATP detection reagent to quantify ATP depletion resulting from kinase-catalyzed phosphoryl transfer to a peptide substrate. Compounds to be tested are dissolved in 100% DMSO and directly distributed into white 384-well plates at 0.5 μl per well. To start the reaction, 10 μl of 5 nM Pim1 kinase and 80 μM BAD peptide (RSRHSSYPAGT-OH) in assay buffer (50 mM HEPES pH 7.5, 5 mM MgCl2, 1 mM DTT, 0.05% BSA) is added into each well. After 15 minutes, 10 μl of 40 μM ATP in assay buffer is added. Final assay concentrations are 2.5 nM PIM1, 20 μM ATP, 40 μM BAD peptide and 2.5% DMSO. The reaction is performed until approximately 50% of the ATP is depleted, then stopped with the addition of 20 μl KinaseGlo Plus (Promega Corporation) solution. The stopped reaction is incubated for 10 minutes and the remaining ATP detected via luminescence on the Victor2 (Perkin Elmer). […] IC50, the half maximal inhibitory concentration, represents the concentration of a test compound that is required for 50% inhibition of its target in vitro.

PIM2 = PIM2 (Homo sapiens, UniProt Q9P1W9); assay: Pim2 ATP depletion assay; type: biochemical; settings: 4 μM ATP, 5 nM PIM2
Sequence of PIM2 (Q9P1W9 whole entry): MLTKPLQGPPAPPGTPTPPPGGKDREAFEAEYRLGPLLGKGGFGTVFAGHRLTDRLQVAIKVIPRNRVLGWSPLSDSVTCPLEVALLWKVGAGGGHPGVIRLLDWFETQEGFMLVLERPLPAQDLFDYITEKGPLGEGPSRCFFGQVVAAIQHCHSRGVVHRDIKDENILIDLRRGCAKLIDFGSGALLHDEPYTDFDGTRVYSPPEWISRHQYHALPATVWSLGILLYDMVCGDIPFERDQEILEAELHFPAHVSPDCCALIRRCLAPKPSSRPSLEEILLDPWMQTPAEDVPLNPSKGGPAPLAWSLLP
Description: The activity of PIM2 is measured using a luciferase-luciferin based ATP detection reagent to quantify ATP depletion resulting from kinase-catalyzed phosphoryl transfer to a peptide substrate. Compounds to be tested are dissolved in 100% DMSO and directly distributed into white 384-well plates at 0.5 μl per well. To start the reaction, 10 μl of 10 nM Pim2 kinase and 20 μM BAD peptide (RSRHSSYPAGT-OH) in assay buffer (50 mM HEPES pH 7.5, 5 mM MgCl2, 1 mM DTT, 0.05% BSA) is added into each well. After 15 minutes, 10 μl of 8 μM ATP in assay buffer is added. Final assay concentrations are 5 nM PIM2, 4 μM ATP, 10 μM BAD peptide and 2.5% DMSO. The reaction is performed until approximately 50% of the ATP is depleted, then stopped with the addition of 20 μl KinaseGlo Plus (Promega Corporation) solution. The stopped reaction is incubated for 10 minutes and the remaining ATP detected via luminescence on the Victor2 (Perkin Elmer).

PIM3 = PIM3 (Homo sapiens, UniProt Q86V86); assay: Pim3 ATP depletion assay; type: biochemical; settings: 40 μM ATP
Description: The activity of PIM3 is measured using a luciferase-luciferin based ATP detection reagent to quantify ATP depletion resulting from kinase-catalyzed phosphoryl transfer to a peptide substrate. Compounds to be tested are dissolved in 100% DMSO and directly distributed into white 384-well plates at 0.5 μl per well. To start the reaction, 10 μl of 10 nM Pim3 kinase and 200 μM BAD peptide (RSRHSSYPAGT-OH) in assay buffer (50 mM HEPES pH 7.5, 5 mM MgCl2, 1 mM DTT, 0.05% BSA) is added into each well. After 15 minutes, 10 μl of 80 μM ATP in assay buffer is added. Final assay concentrations are 5 nM PIM1, 40 μM ATP, 100 μM BAD peptide and 2.5% DMSO. The reaction is performed until approximately 50% of the ATP is depleted, then stopped by the addition of 20 μl KinaseGlo Plus (Promega Corporation) solution. The stopped reaction is incubated for 10 minutes and the remaining ATP detected via luminescence on the Victor2 (Perkin Elmer).

Row | IC50 (PIM1) [nM] | IC50 (PIM2) [nM] | IC50 (PIM3) [nM] | Structure (SMILES) | EC50 (KMS11 cells) [nM]
1 | 6 | 60 | 7 | N[C@H]1CCCN(c2ccnc3cnc(-c4cccc(-c5nccs5)n4)cc23)C1 [Example 25, (S)-1-(6-(6-(thiazol-2-yl)pyridin-2-yl)-1,7-naphthyridin-4-yl)piperidin-3-amine] | 590
2 | 10 | 45 | 10 | N[C@H]1CCCN(c2ccnc3ccc(-c4cccc(-c5nccs5)n4)cc23)C1 [Example 27, (S)-1-(6-(6-(thiazol-2-yl)pyridin-2-yl)quinolin-4-yl)piperidin-3-amine] | 940
3 | 7 | 68 | 7 | N[C@H]1CCCN(c2ccnc3ccc(-c4nccc(-c5nccs5)n4)cc23)C1 [Example 28, (S)-1-(6-(4-(thiazol-2-yl)pyrimidin-2-yl)quinolin-4-yl)piperidin-3-amine] | 770
4 | 5 | 12 | 6 | C[C@@H]1C[C@H](N)CN(c2ccnc3ccc(-c4cccc(-c5nccs5)n4)cc23)C1 [Example 31, (3S,5R)-5-methyl-1-(6-(6-(thiazol-2-yl)pyridin-2-yl)quinolin-4-yl)piperidin-3-amine] | 790

Source: patent publication US8735424B2 (Novartis AG, priority 2008, dated 2014)
